From US5840696A (priority 1997, dated 1998)

Legend:
[1] = test system: constitutive nitric oxide synthase (cNOS); experiment: influence of L-NAME on urine flow rate responses in conscious rats
[2] = target: T1, central kappa-opioid receptors (Rattus norvegicus, UniProt P34975); settings: 1 μg i.c.v. pretreatment, previous investigations; cited from earlier work
T1 construct: Anesthetized male Sprague-Dawley rats; from tissue; host or cells: central nervous system of conscious male Sprague-Dawley rats (in vivo, lateral cerebral ventricle injection)
T1 sequence (P34975 whole entry): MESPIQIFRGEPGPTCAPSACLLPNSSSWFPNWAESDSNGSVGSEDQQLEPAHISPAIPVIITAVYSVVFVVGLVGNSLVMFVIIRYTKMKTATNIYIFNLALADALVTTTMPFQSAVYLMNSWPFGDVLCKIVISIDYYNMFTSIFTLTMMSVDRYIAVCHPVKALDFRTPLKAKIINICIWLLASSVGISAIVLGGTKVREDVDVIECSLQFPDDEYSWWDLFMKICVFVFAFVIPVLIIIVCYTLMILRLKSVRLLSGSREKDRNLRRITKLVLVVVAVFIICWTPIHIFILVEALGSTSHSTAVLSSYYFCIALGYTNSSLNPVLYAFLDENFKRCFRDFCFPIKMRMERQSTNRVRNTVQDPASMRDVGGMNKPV

In the case of `COC(=O)[C@@H](N)CCCNC(=N)N[N+](=O)[O-]` [L-NAME, L-nitro arginine methyl ester], the “baseline urine flow rate (V)” value ([1]; 30 mg/Kg i.v.) is reported as “did not alter baseline urine flow rate”.

In the case of `Oc1ccc2c3c1O[C@H]1c4[nH]c5c(c4C[C@@]4(O)[C@@H](C2)N(CC2CC2)CC[C@]314)C[C@@]1(O)[C@H]2Cc3ccc(O)c4c3[C@@]1(CCN2CC1CC1)[C@H]5O4` [nor-binaltorphimine], the “effect on renal responses produced by i.c.v. U50,488H (1 μg)” value [2] is given as “completely and selectively prevented”.

In the case of `NS(=O)(=O)c1cc(C(=O)O)c(NCc2ccco2)cc1Cl` [furosemide], the “urine flow rate (V) response after L-NAME” value ([1]; L-NAME pretreatment) is reported as “did not alter urine flow rate”.
